# Test results as given in US20120076811A1 (priority 2009, published 2012).
# “Also recorded” adds a separate entry of the source.
# Key:
# [1] = tested on: lymphoid cells from type II collagen immunized DR1 transgenic mice; assay type: cell-based, mouse
# [2] = biological target: CD4+ CD44+ cells from CFA only immunized DR1 transgenic mice (T cell receptors on cells)
# [3] = biological target: HA259-274 specific CD4+ T cells from DR1 transgenic mice immunized with H5N1-rHA1 protein/CFA (T cel)
# [4] = biological target: HA259-274 specific CD4+ T cells from DR1 transgenic mice immunized with H5N1-rHA1 protein/CFA (T cel); remark: listed apart in the source
# [5] = tested on: lymphoid cells from rHA1 immunized DR1 transgenic mice; assay type: cell-based, mouse
# [6] = tested on: lymphoid cells from H5N1-rHA1 immunized DR1 transgenic mice; assay type: cell-based, mouse
# [7] = tested on: lymphoid cells from H5N1-rHA1 immunized DR1 transgenic mice; assay type: cell-based, mouse; remark: listed apart in the source
# [8] = tested on: lymphoid cells from H5N1-rHA1 immunized DR1 transgenic mice; assay type: cell-based, mouse; remark: listed apart in the source
Substance,proliferative response ([3H]thymidine incorporation) [5],IFN-γ production in culture supernatant [6],proliferation response ([3H]thymidine incorporation) [7],other results
AGFKGEQGPKGEPGP [CII280-294],,,,proliferative response ([3H]thymidine incorporation) [1]: Strong dose dependent responses
HA259-274/DR1 tetramers (from UniProt P01903 26-216) (peptide-MHC),,,,tetramer positive cells [2]: 0.01%; tetramer positive population (% of the CD4+ CD44+ cells) [3]: 0.1; fold increased staining against control CLIP/DR1 tetramers [4]: 30 fold; tetramer positive population [4]: 3%
INSSLPYQNIHPVTIGECPKY [HA298-317],significantly lower; also recorded: no response,,,
KMRMATPLLMQALPM [CLIP89-105],,not,not,
PKYVKQNTLKLAT [HA306-318],Strong dose dependent responses,,,
SNGNFIAPEYAYKIVK [HA259-274],,positive cytokine production,Strong dose dependent proliferation responses,IL-2 production in culture supernatant [8]: positive cytokine production
